What was measured:
BSA = target: T1, BSA (Bos taurus, UniProt P02769); assay: BSA fluorescence quenching titration (Stern-Volmer, Scatchard); assay type: binding, bovine; settings: 1.6 μM BSA, Tris-HCl buffer; for Ksv (Stern-Volmer quenching constant): excitation 280 nm; for n (binding site number): Scatchard equation; for Kq (quenching rate constant): τ0 = 10^−8 s
T1 construct: purchased Asbio
Excerpt: The structure and transmission characteristics of BSA are similar to HSA [36]. BSA was used instead of HSA for drug delivery due to its ease to purify and stability. The binding of metal complexes to proteins was studied by fluorescence spectrum titration. Endogenous fluorescence of BSA comes from residues as tryptophan (Trp), tyrosine (Tyr) and phenylalanine (Phe), and conformational changes of BSA-binding metal complexes are obtained by observing the fluorescence of Trp residues at 350 nm. […] The same phenomenon occurs for the other compounds (shown in Figure S22, Supplementary Materials). […] This appearance may be due to a resonant energy transfer. […] The Stern–Volmer equation [37] (Equation (1)) was used to study the quenching mechanism of BSA and the complexes:I0/I = 1 + Kqτ0[Q] = 1 + Ksv[Q](1) where the fluorescence intensity of the protein is expressed by I0 and I in absence and in presence of quencher, respectively; Ksv is the Stern–Volmer quenching rate constant; Kq is the quenching rate constant; and τ0 and [Q] represent the lifetime of fluorescent molecule in absence of quencher (valued 10^−8 s) and quencher concentration, respectively. The maximum causing a value of dynamic quenching in biopolymers is 2 × 10^10 M^−1 S^−1 [23].
Calculation of the binding constants (Kb) was achieved according to the Scatchard equation [38] (Equation (2)):log [(I0 − I)/I] = logKb + nlog[Q](2) where Kb and n represent the binding constant and the binding site number, respectively. The binding constants Kb and the binding site number were obtained from the intercept and slope of the double logarithm regression plot between log [(I0 − I)/I] and log [Q]. The binding constant (>104 L mol^−1) was obtained under the condition of high binding affinity. […] It can be seen in Figure 7 that the absorption spectra of the complexes partially overlap with the […] spectrum of BSA.
Bovine serum albumin (BSA) was dissolved in a Tris-HCl buffer (pH = 7.4) solution to prepare a 1.6 × 10^−6 M BSA solution. The protein concentration was measured by spectrophotometry at 280 nm with the extinction coefficient of 44,300 M^−1 cm^−1. Stock solutions of complexes 1–6 (1 × 10^−2 M) were prepared in DMSO. The emission spectrum (300–600 nm) of BSA was monitored at the excitation wavelength of 280 nm.

[1] = tested on: human esophageal cancer cell line (Eca-109); assay: CCK-8 antiproliferative assay, Eca-109; assay type: cell-based; settings: Eca-109, CCK-8, 72 h incubation
Excerpt: (§1) The in vitro antiproliferative properties of complexes 1–6 against Eca-109, A549 and Bel-7402 tumor lines were examined by employing the CCK-8 assay with cisplatin as a positive control. […] It is interesting that the different cells respond distinctively to these complexes. The complexes display remarkable cytotoxicity against Eca-109 in comparison to A549 and Bel-7402. […] Compared with that of zinc chloride complexes, the antiproliferative activity of these complexes is stronger. This activity of the bromide complexes follows the order of 1 > 3 > 5 and that of the iodide complexes is 2 > 4 > 6. […] It is worth mentioning that, among these compounds, the order of the activity is consistent with the electronegativity values (methylsulfonyl (−2.96) < methoxy (−2.86) < methyl (−2.28) of the substituents.
(§2) In this assay, human esophageal cancer cell line (Eca-109), human lung cancer cell line (A549), human hepatocellular carcinoma cell line (Bel-7402) and mouse monocyte macrophage (RAW264.7) were used to evaluate the antiproliferative activities or cytotoxicity in vitro by CCK-8 assay for determining cell viability with cisplatin as the positive control. All the cells are purchased from the American Type Culture Collection (Manassas, VA, USA). The cells were cultured in 100 µL complete DMEM growth media containing 10% FBS and 1% PS. First, 3000 cells were added to 96-well plates and were cultured overnight in a humidified atmosphere at 37 °C with 5% CO2. Then, complexes 1–6 and cisplatin were diluted with complete DMEM growth media to obtain the working concentration, which was added to the tissue culture plate and incubated for 72 h. The CCK-8 solution was added to each well. After 3 h incubation, the absorbance of each well at 490 nm was measured using an enzyme labeling instrument (Tecan, Grödig, Salzburg, Austrla). Cell morphology was measured and imaged by an inverted microscope (Nikon eclipses TS100, Tokyo, Japan) and a Nikon digital camera (Tokyo, Japan). The 50% inhibitive concentration (IC50) was calculated by Graph Pad Prism 5.0 (San Diego, CA, USA).

[2] = tested on: human hepatocellular carcinoma cell line (Bel-7402); assay: CCK-8 antiproliferative assay, Bel-7402; assay type: cell-based; settings: Bel-7042, CCK-8, 72 h incubation
Excerpt: as §1, §2

[3] = tested on: human lung cancer cell line (A549); assay: CCK-8 antiproliferative assay, A549; assay type: cell-based; settings: A549, CCK-8, 72 h incubation
Excerpt: as §1, §2

T1 sequence (P02769 25-607): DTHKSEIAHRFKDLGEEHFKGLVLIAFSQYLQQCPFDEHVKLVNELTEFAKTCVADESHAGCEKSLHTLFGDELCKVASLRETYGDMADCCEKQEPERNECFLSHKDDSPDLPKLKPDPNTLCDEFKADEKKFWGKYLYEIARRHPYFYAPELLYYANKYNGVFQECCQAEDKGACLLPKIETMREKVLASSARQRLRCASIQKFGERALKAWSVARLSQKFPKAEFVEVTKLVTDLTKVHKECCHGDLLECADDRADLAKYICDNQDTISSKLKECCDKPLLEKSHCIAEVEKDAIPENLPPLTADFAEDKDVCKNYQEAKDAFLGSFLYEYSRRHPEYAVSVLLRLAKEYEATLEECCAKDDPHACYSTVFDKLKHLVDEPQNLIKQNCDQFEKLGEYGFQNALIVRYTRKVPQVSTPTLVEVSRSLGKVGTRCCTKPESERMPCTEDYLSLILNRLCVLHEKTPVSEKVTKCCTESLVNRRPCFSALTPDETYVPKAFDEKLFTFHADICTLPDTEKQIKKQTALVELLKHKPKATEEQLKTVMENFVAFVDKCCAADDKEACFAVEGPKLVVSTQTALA

| Structure (SMILES) | Ksv (Stern-Volmer quenching constant) (BSA) | n (binding site number) (BSA) | Kq (quenching rate constant) (BSA) | IC50 [1] | IC50 [2] | IC50 [3] |
| --- | --- | --- | --- | --- | --- | --- |
| CS(=O)(=O)c1ccc(-c2cc(-c3ccccn3)nc(-c3ccccn3)c2)cc1.[Br][Zn][Br] [Compound 1, [ZnBr2L^1]] | 176000 M⁻¹ | 0.72 | 1.76e+13 M⁻¹ s⁻¹ | 79 nM | 358 nM |  |
| CS(=O)(=O)c1ccc(-c2cc(-c3ccccn3)nc(-c3ccccn3)c2)cc1.[I][Zn][I] [Compound 2, [ZnI2L^1]] | 176000 M⁻¹ | 0.83 | 1.76e+13 M⁻¹ s⁻¹ | 66 nM | 331 nM | 290 nM |
| COc1ccc(-c2cc(-c3ccccn3)nc(-c3ccccn3)c2)cc1.[Br][Zn][Br] [Compound 3, [ZnBr2L^2]] | 115000 M⁻¹ | 1.07 | 1.15e+13 M⁻¹ s⁻¹ | 169 nM | 414 nM | 482 nM |
| COc1ccc(-c2cc(-c3ccccn3)nc(-c3ccccn3)c2)cc1.[I][Zn][I] [Compound 4, [ZnI2L^2]] | 163000 M⁻¹ | 1.08 | 1.63e+13 M⁻¹ s⁻¹ | 75 nM | 397 nM | 307 nM |
| Cc1ccc(-c2cc(-c3ccccn3)nc(-c3ccccn3)c2)cc1.[Br][Zn][Br] [Compound 5, [ZnBr2L^3]] | 46300 M⁻¹ | 0.87 | 4.63e+12 M⁻¹ s⁻¹ | 197 nM | 616 nM | 748 nM |
| Cc1ccc(-c2cc(-c3ccccn3)nc(-c3ccccn3)c2)cc1.[I][Zn][I] [Compound 6, [ZnI2L^3]] | 76700 M⁻¹ | 0.89 | 7.67e+12 M⁻¹ s⁻¹ | 146 nM |  | 945 nM |
| N.N.[Cl][Pt][Cl] [cisplatin, reference compound] |  |  |  | 5460 nM | 3090 nM | 12000 nM |
